Laboratory results taken from patent publication US20140194506A1, “Use of Potassium Piperonyl Pentadienoate for Lowering Blood Lipid” (INNER MONGOLIA UNIVERSITY, priority 2011, published 2014).
Several values for one entry are separate records, joined by “and”; a condition that tells them apart may be missing. Equal values may be shown once.

What was measured:
[1] = test system: high lipid mode white rats; experiment: Therapeutic blood lipid lowering in hyperlipoidemia mode white rats (Example 3); format: in vivo, Wistar male white rats
Excerpt: High lipid feed formula: cholesterol 3%, lard 10%, sodium cholate 0.5%, basal feed: 86.5% (formula: flour 17.14%, rice flour 8.57%, maize 17.14%, bran 21%, fish flour 1.71%, dairy salt 0.857%, vitamin 0.085%, bean material 17.14%).
72 Wistar white male rats of 170±10 g of body weight were divided into 6 groups randomly and numbered. Each group included 12 rats. The rats were fed with common standard feed under experimental conditions and observed for 7 days, and its blood was sampled from tail for testing serum total cholesterol (TC). […] From the 8th day, the group I was set as a blank group, and was fed with common standard feed. Other groups were fed with high lipid feed for 8 days in a row, and the blood was sampled from tail on the next day for testing TC. […] The rats then were divided into 5 groups randomly (see table 12) according to TC levels. Each group included 10 rats (10 rats who were unsuccessful blood lipid modes were discarded). The rats were ted with high lipid teed continuously. Group was a high lipid feed mode control group. Group III was a Simvastatin 10 mg/kg group. Group IV was a GB-O group. Group V was a GB-H group. Group VI was a GB-K group. The high lipid feed mode control group was fed with high lipid feed together with distilled water. Groups III, IV, V, and VI were fed with high lipid feed together with required simvastatin, GB-O, GB-H, and GB-K suspensions (formulated by grinding with 0.5% sodium carboxymethycellulose CMC-Na) respectively. The dosing amount was 0.046 mmol/kg, and the amount of high lipid feed was 20 g per day for each rat. The grouping and the dosing amount for each group can be found in table 13.
(§1) The body weights of white rats were determined and recorded every day. The rats for each group were dosed basing, on its body weight by feeding for 14 days at 22° C. of room temperature and 40-50% of relative humidity. On the 14th day, after fasting and freely receiving water for 16 hours, the blood was sampled from aorta, placed for 30 min to blood coagulate, centrifugated for 15 min at 3000 r/min to separate serum. The values of serum total cholesterol (TC), and triglyceride (TG) were determined on an automatic analyzer using enzymatic colorimetry, the value of high density lipoprotein cholesterol (HDL) was determined using a phosphotungstic acid-Mg precipitation method, and the value of low density lipoprotein cholesterol (LDL) was determined using a polyvinyl sulfate precipitation method.
All data were treated statistically, and are presented as means standard deviations (x±s). The significance of difference was judged by T test. The calculation of p value was obtained by comparing the high lipid mode group with the blank control group, and comparing other test drug groups with the high lipid mode group.
The reaction temperature was 37° C. The cholesterol ester in serum was first hydrolyzed into free cholesterol (FC) and fatty acid with cholesterol ester hydrolase (CEH.) Then, all FC in serum was oxidized into ch-4-en-3-one and H2O2) with cholesterol oxidase (COD). The resulting H2O2, was reacted with 4-aminoantipyrine (4-AAP) and 4-chlorophenol in the presence of peroxidase (POD) (Trinder reaction), to yield red quinine imine, which was colarimetrically tested at 500 nm wavelength.
The reaction temperature was 37° C. The triglyceride in serum was first hydrolyzed into glycerol and fatty acid with lipoprotein lipase (LPL). The resulting glycerol was reacted with ATP in the presence of glycerol kinase (GK), to produce glycerol-3-phosphate and ADP. The resulting glycerol-3-phosphate was oxidized into dihydroxyacetone phosphate and H2O2 with oxygen in the presence of glycerol phosphate oxidase (GPO). […]

[2] = test system: high lipid mode white rats; experiment: Prophylactic blood lipid lowering in high lipid feed white rats (Example 2); format: in vivo, Wistar male white rats
Excerpt: High lipid feed formula: cholesterol 3%, lard 10%, sodium cholate 0.5%, basal feed: […] (formula: flour 17.14%, rice flour 8.57%, maize […], bran 21%, fish flour 1.71%, dairy salt 0.857%, vitamin 0.085%, bean material 17.14%).
60 Wistar White male rats of 150±10 g of body weight were fed with common standard feed for 5 days, and then divided into 6 groups randomly. Each group included 10 rats. Group I was a blank group, where the rats were fed with common standard feed. Group II was a high lipid feed mode control group. Group III was a Simvastatin 10 mg/kg group. Group IV was a GB-O group. Group V was a GB-H group. Group VI was a GB-K group. High lipid feed mode control group were fed with high lipid feed together with distilled water. Groups III, IV, V, and VI were fed with high lipid feed together with required simvastatin, GB-O, GB-H, and GB-K suspensions (formulated by grinding with 0.5% sodium […] CMC-Na) respectively. The dosing amount was 0.046 mmol/kg, and the amount of high lipid feed was 20 g per day for each rat. The grouping and the dosing amount for each group can be found in table 1.
as §1, with “The rats in each group” for “The rats for each group”, “were dosed basing on its” for “were dosed basing, on its”, “16 hours, its blood was” for “16 hours, the blood was”, “blood coagulate, and centrifugated for” for “blood coagulate, centrifugated for”, “determined using the polyvinyl sulfate” for “determined using a polyvinyl sulfate”
All data were treated statistically, and were presented as means±standard deviations (x±s). The significance of difference was judged by T test. The calculation of p value was obtained by comparing the high lipid mode group with the blank control group, and comparing other test drug groups with the high lipid mode group.
The reaction temperature was 37° C. The cholesterol ester in serum was first hydrolyzed into free cholesterol (FC) and fatty acid with cholesterol ester hydrolase (CEH). Then, all FC in serum was oxidized into ch-4-en-3-one and H2O2 with cholesterol oxidase (COD). The resulting H2O2 was reacted with 4-aminoantipyrine (4-AAP) and 4-chlorophenol in the presence of peroxidase (POD) (Trinder reaction), to yield red quinine imine, which was calorimetrically tested at a 500 nm wavelength.
The reaction temperature was 37° C. The triglyceride ire serum was first hydrolyzed into glycerol and fatty acid with lipoprotein lipase (LPL). The resulting glycerol was reacted with ATP in the presence of glycerol kinase (GK), to produce glycerol-3-phosphate and ADP. The resulting glycerol-3-phosphate was oxidized into dihydroxyacetone phosphate and H2O2 with oxygen in the presence of glycerol phosphate oxidase (GPO). The resulting H2O2 was reacted with 4-aminoantipyrine (4-AAP) and 4-chlorophenol in the presence of peroxidase (POD) (Trinder reaction), to yield red quinine imine, which was colorimetrically determined at a 500 nm wavelength.
The LDL in serum was precipitated using PVS. The serum TC and the Ch in the resulting supernatant were determined using the enzymatic methods described hereinabove, and the LDL-C was calculated by subtracting the Ch from the serum TC. The polyethylene glycol monoether (PEGME) was added in a suitable amount in order to facilitate the precipitation of LDL. […]

[3] = group mean n=10, 15th day after administration
[4] = in comparison with group II (high lipid mode control group)
[5] = rats No. 1-10, 0.046 mmol/kg (Simvastatin 10 mg/kg), 15th day after administration

O=C(O)/C=C/C=C/c1ccc2c(c1)OCO2 [GB-H, piperonyl pentadienoic acid]
Total cholesterol value ([1]; Table 18, mean ± standard deviation, n=10): 11.09 ± 1.82
Triglyceride value ([1]; Table 19, mean ± standard deviation, n=10): 2.55 ± 0.42 mmol/L
Low density lipoprotein cholesterol ([1]; Table 20, mean ± standard deviation, n=10): 3.34 ± 1.30 mmol/L
High density lipoprotein cholesterol ([1]; Table 21, mean ± standard deviation, n=10): 0.67 ± 0.21 mmol/L
serum high density lipoprotein cholesterol (HDL) contents, Mean [1, 3]: 0.67 mmol/L
serum low density lipoprotein cholesterol (LDL) contents, Mean [1, 3]: 3.34 mmol/L
serum total cholesterol (TC) contents, Mean [1, 3]: 11.09 mmol/L
serum triglyceride (TG) contents, Mean [1, 3]: 2.55 mmol/L
effect on serum high density lipoprotein cholesterol, in words [1, 4]: show the effect of some extent, of increasing high density lipoprotein cholesterol
effect on serum low density lipoprotein cholesterol, in words [1, 4]: significant differences
effect on serum total cholesterol, in words [1, 4]: extremely significant differences
effect on serum triglyceride, in words [1, 4]: extremely significant differences
serum high density lipoprotein cholesterol (HDL) contents, individual rats [1, 5]: 0.67 mmol/L and 0.85 mmol/L and 0.72 mmol/L and 0.77 mmol/L and 0.37 mmol/L and 0.46 mmol/L and 0.82 mmol/L and 0.73 mmol/L and 1.02 mmol/L and 0.35 mmol/L
serum low density lipoprotein cholesterol (LDL) contents, individual rats [1, 5]: 2.22 mmol/L and 5.37 mmol/L (2×) and 2.03 mmol/L and 3.35 mmol/L and 3.61 mmol/L and 2.68 mmol/L and 2.09 mmol/L and 4.36 mmol/L and 2.34 mmol/L
serum triglyceride (TG) contents, individual rats [1, 5]: 1.97 mmol/L and 2.08 mmol/L and 2.37 mmol/L and 2.61 mmol/L (2×) and 2.82 mmol/L and 2.47 mmol/L and 3.04 mmol/L and 2.23 mmol/L and 3.31 mmol/L
serum total cholesterol (TC) contents, individual rats ([1]; rats No. 1-10, hyperlipoidemia mode, drug 14 days, 0.046 mmol/kg (Simvastatin 10 mg/kg), 15th day after administration): 12.34 mmol/L and 9.37 mmol/L and 12.03 mmol/L and 10.25 mmol/L and 10.37 mmol/L and 9.36 mmol/L (2×) and 11.28 mmol/L (2×) and 15.24 mmol/L
Total cholesterol value ([2]; Table 6, mean ± standard deviation, n=10): 13.23 ± 3.49
Triglyceride value ([2]; Table 7, mean ± standard deviation, n=10): 1.31 ± 0.3219 mmol/L
Low density lipoprotein cholesterol ([2]; Table 8, mean ± standard deviation, n=10): 4.298 ± 1.0578 mmol/L
High density lipoprotein cholesterol ([2]; Table 9, mean ± standard deviation, n=10): 0.325 ± 0.0902 mmol/L
serum total cholesterol (TC) contents, Mean ([2]; group mean n=10, 0.046 mmol/kg (Simvastatin 10 mg/kg), 15th day after administration): 13.23 mmol/L
serum high density lipoprotein cholesterol (HDL) contents, Mean [2, 3]: 0.32 mmol/L
serum low density lipoprotein cholesterol (LDL) contents, Mean [2, 3]: 4.29 mmol/L
serum triglyceride (TG) contents, Mean [2, 3]: 1.31 mmol/L
effect on serum low density lipoprotein cholesterol, in words [2, 4]: show the effect of lowering serum low density lipoprotein cholesterol value
effect on serum total cholesterol, in words [2, 4]: extremely significant differences
effect on serum triglyceride, in words ([2]; in comparison with group II (high lipid mode control group), listed as GB-1-1): extremely significant differences
serum high density lipoprotein cholesterol (HDL) contents, individual rats [2, 5]: 0.26 mmol/L (2×) and 0.48 mmol/L and 0.18 mmol/L and 0.35 mmol/L and 0.28 mmol/L and 0.42 mmol/L and 0.41 mmol/L and 0.30 mmol/L and 0.31 mmol/L
serum low density lipoprotein cholesterol (LDL) contents, individual rats [2, 5]: 4.53 mmol/L and 5.85 mmol/L and 4.24 mmol/L and 2.74 mmol/L and 4.19 mmol/L and 2.68 mmol/L and 5.09 mmol/L and 4.86 mmol/L and 3.51 mmol/L and 5.29 mmol/L
serum triglyceride (TG) contents, individual rats [2, 5]: 1.15 mmol/L and 1.64 mmol/L and 1.71 mmol/L and 0.91 mmol/L and 0.88 mmol/L and 1.06 mmol/L and 1.58 mmol/L and 1.23 mmol/L and 1.70 mmol/L and 1.30 mmol/L
serum total cholesterol (TC) contents, individual rats ([2]; rats No. 1-10, high lipid feed plus drug 14 days, 0.046 mmol/kg (Simvastatin 10 mg/kg), 15th day after administration): 16.64 mmol/L and 14.72 mmol/L and 10.11 mmol/L and 13.12 mmol/L and 9.56 mmol/L and 7.83 mmol/L and 12.22 mmol/L and 14.24 mmol/L and 14.28 mmol/L and 19.58 mmol/L
